Data taken from paper PMC3234165 (Biochemistry, 2011).

Columns and labels:
HCT-15 = test: Multiplex cytotoxicity assay; format: cell-based; conditions: Homo sapiens, HCT-15, read-out: IC50 HCT-15
Kv1.4 potassium channel = Kv1.4 potassium channel (Rattus norvegicus, UniProt P15385+Q9R0C9); test: Whole cell patch clamp, HEK-293 cells co-expressing Kv1.4 and sigma-1 receptor; format: cell-based
[1] = target: H2 (histamine receptor type 2) (Homo sapiens, UniProt P25021); test: NIMH PDSP secondary binding assay
[2] = target: M4 (muscarinic acetylcholine receptor type 4) (Homo sapiens, UniProt P08173); test: NIMH PDSP secondary binding assay
[3] = target: M3 (muscarinic acetylcholine receptor type 3) (Homo sapiens, UniProt P20309); test: NIMH PDSP secondary binding assay
[4] = target: pure guinea pig sigma-1 receptor (Cavia porcellus, UniProt Q60492); test: Competitive displacement of [3H]-; format: binding
[5] = target: T1, α-1D (α-adrenergic receptor subtype 1D) (Homo sapiens, UniProt P25100); test: NIMH PDSP secondary binding assay
T1 sequence (P25100 1-572): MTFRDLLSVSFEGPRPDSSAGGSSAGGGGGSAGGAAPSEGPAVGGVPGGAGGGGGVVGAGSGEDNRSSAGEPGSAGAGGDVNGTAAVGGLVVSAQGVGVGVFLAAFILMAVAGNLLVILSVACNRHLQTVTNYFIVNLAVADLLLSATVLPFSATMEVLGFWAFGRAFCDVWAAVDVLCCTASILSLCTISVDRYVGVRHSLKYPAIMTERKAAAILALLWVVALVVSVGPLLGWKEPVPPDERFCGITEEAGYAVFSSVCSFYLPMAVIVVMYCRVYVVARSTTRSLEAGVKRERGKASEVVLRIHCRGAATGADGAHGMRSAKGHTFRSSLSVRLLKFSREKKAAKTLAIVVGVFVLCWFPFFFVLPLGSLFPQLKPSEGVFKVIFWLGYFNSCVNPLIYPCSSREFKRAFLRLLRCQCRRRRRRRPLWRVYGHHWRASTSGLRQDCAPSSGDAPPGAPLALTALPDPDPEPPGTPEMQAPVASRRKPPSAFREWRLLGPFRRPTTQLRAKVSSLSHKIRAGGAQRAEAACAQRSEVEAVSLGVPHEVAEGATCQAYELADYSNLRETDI

[6] = target: M2 (muscarinic acetylcholine receptor type 2) (Homo sapiens, UniProt P08172); test: NIMH PDSP secondary binding assay
[7] = target: M5 (muscarinic acetylcholine receptor type 5) (Homo sapiens, UniProt P08912); test: NIMH PDSP secondary binding assay
NCI-H460 = test: Multiplex cytotoxicity assay; format: cell-based; conditions: Homo sapiens, NCI-H460, read-out: IC50 NCI-H460
[8] = target: D4 (dopamine receptor type 4) (Homo sapiens, UniProt P21917); test: NIMH PDSP secondary binding assay
[9] = target: sigma-1 receptor (sigma-1 sites) (Cavia porcellus, UniProt Q60492); test: Competitive displacement of [3H]-; format: binding, guinea pig
Sequence of sigma-1 receptor (sigma-1 sites) (Q60492 whole entry): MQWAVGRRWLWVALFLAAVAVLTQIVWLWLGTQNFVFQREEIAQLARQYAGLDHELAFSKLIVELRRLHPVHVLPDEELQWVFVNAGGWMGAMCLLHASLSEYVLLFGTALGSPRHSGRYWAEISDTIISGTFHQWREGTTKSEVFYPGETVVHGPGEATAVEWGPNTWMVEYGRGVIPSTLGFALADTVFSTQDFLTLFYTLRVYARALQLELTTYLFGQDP

Sequence of M5 (muscarinic acetylcholine receptor type 5) (P08912 whole entry): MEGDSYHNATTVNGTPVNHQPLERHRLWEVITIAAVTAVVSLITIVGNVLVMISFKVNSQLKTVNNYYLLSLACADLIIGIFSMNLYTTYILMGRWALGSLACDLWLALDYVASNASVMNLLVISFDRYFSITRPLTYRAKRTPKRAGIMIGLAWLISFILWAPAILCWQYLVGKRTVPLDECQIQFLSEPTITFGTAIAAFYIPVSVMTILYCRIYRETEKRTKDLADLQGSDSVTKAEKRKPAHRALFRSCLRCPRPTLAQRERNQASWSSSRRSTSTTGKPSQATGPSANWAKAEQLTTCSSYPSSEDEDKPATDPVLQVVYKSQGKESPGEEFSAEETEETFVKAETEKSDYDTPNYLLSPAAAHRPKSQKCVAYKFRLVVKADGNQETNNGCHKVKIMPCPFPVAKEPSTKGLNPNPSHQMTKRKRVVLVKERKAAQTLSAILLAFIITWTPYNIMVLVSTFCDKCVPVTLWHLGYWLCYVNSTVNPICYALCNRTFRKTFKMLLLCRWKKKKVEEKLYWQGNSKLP
Sequence of M3 (muscarinic acetylcholine receptor type 3) (P20309 whole entry): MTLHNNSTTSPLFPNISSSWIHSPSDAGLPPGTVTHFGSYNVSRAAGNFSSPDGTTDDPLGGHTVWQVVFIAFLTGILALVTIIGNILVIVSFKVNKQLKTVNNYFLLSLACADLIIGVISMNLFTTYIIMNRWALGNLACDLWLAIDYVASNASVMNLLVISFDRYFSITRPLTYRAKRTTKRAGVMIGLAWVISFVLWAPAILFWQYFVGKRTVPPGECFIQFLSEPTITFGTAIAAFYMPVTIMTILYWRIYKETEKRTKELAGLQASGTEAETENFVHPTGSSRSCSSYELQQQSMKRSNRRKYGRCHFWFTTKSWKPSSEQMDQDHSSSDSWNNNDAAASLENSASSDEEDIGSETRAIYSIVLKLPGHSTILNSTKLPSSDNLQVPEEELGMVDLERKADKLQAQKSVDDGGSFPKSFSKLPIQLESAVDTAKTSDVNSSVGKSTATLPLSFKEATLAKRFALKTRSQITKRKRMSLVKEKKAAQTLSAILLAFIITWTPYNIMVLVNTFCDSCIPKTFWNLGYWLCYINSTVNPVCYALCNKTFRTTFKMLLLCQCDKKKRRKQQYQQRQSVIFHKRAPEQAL
Sequence of H2 (histamine receptor type 2) (P25021 whole entry): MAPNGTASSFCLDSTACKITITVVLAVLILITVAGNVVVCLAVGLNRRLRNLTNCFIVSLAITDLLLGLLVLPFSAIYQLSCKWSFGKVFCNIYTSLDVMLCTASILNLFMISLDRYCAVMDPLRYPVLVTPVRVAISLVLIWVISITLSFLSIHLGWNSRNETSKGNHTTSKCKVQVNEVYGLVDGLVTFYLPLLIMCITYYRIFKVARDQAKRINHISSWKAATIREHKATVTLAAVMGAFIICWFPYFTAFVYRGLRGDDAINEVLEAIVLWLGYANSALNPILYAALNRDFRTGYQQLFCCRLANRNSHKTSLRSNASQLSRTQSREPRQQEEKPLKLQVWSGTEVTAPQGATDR
Sequence of M4 (muscarinic acetylcholine receptor type 4) (P08173 whole entry): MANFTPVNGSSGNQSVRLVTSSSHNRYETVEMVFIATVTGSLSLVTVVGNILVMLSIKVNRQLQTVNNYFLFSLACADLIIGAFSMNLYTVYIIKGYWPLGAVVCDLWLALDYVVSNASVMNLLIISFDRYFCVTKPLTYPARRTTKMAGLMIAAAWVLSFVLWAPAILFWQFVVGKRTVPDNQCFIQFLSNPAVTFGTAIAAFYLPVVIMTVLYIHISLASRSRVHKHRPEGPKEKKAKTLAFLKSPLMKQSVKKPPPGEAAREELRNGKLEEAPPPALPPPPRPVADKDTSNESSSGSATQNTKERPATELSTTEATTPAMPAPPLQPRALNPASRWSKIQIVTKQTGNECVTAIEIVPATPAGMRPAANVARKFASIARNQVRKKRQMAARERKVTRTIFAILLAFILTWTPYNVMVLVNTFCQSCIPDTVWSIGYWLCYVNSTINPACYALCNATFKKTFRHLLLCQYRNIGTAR
Sequence of M2 (muscarinic acetylcholine receptor type 2) (P08172 whole entry): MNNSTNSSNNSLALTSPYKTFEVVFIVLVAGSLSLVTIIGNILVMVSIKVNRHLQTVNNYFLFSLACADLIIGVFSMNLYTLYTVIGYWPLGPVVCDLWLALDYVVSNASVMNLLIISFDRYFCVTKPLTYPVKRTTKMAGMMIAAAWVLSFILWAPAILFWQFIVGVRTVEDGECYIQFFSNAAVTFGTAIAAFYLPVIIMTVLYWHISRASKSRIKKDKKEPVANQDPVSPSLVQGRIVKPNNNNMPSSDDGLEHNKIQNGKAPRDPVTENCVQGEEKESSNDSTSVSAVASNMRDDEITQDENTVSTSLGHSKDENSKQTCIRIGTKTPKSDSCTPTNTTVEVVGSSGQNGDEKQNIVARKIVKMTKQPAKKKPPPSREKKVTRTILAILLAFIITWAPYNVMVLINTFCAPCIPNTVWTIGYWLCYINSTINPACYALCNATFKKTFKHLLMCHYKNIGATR
Sequence of D4 (dopamine receptor type 4) (P21917 whole entry): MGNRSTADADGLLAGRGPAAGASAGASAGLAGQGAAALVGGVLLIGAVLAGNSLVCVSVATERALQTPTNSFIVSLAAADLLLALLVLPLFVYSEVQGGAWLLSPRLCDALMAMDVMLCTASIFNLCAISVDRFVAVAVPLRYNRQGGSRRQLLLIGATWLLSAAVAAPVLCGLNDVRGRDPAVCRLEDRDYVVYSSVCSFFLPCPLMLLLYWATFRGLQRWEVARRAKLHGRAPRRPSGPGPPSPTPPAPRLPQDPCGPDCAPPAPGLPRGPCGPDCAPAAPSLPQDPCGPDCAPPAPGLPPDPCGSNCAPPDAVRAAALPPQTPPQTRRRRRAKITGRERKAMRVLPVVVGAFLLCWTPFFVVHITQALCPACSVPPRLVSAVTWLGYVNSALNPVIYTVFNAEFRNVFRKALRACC
Sequence of pure guinea pig sigma-1 receptor (Q60492 whole entry): as the sequence (Q60492 whole entry) above
Sequence of Kv1.4 potassium channel (P15385 whole entry): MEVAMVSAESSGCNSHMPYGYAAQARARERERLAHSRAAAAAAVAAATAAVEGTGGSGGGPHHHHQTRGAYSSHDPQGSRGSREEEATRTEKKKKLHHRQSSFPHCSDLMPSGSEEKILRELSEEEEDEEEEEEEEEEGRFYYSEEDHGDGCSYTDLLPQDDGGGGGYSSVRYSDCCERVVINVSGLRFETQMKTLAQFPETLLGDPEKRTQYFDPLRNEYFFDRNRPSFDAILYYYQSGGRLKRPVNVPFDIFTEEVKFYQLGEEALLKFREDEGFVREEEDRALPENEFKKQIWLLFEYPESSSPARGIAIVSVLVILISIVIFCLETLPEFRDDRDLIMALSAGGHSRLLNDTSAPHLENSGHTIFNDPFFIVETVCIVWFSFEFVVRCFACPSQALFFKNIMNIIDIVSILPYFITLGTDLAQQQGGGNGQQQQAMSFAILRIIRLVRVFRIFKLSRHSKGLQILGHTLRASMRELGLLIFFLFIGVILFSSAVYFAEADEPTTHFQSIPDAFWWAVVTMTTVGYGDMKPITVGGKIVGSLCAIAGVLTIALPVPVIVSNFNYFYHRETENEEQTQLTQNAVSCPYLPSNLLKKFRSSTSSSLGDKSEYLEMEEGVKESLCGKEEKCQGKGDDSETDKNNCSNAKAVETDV
Sequence of Kv1.4 potassium channel (Q9R0C9 whole entry): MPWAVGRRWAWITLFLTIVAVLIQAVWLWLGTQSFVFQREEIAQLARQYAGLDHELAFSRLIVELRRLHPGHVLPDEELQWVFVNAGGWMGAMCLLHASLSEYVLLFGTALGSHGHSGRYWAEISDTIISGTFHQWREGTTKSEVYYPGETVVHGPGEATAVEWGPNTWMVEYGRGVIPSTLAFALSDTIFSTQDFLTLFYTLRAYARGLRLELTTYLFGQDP

SMILES | IC50 (HCT-15) | IC50 (Kv1.4 potassium channel) | Ki [1] | Ki [2] | Ki [3] | Ki [4] | Ki [5] | Ki [6] | Ki [7] | IC50 (NCI-H460) | Ki [8] | Ki [9]
CCCCCCCNCCCc1ccccc1 [2a, N-(3-Phenylpropyl)heptan-1-amine] | 18 ± 12 µM | 10 µM | > 10 µM | > 10 µM | > 10 µM | 0.018 ± 0.014 µM | > 10 µM | > 10 µM | > 10 µM | 45 ± 5 µM | – | –
CCCCCCCCCCCCNCCCc1ccccc1 [3a, N-(3-Phenylpropyl)dodecan-1-amine] | > 100 µM | – | > 10 µM | > 10 µM | > 10 µM | – | > 10 µM | > 10 µM | > 10 µM | 55 ± 3 µM | > 10 µM | –
CCCCCCCCCCCCNCCCc1ccc([N+](=O)[O-])cc1 [3b, N-(3-(4-Nitrophenyl)propyl)dodecan-1-amine] | 25 µM | – | – | – | – | – | 9 µM | – | 3.6 µM | 18 ± 2 µM | – | 5.1 ± 0.2 µM
